System: macrophages
Experiment: IL-8 secretion by macrophages incubated with serotonin receptor agonists (bead-based immunoassay)
Type: cell-based
Details: human CD14+ monocyte-derived macrophages (M-CSF), supernatant
Protocol: CD14+ monocytes were isolated from human PBMCs using negative magnetic bead selection (Stemcell Technologies) on day 0. Cells were cultured with M-CSF to differentiate monocytes to macrophages. On day 6, cells were treated with LP44 (high affinity 5-HT7 agonist), BW 723C86 hydrochloride (5-HT2B agonist), MK 212 hydrochloride (5-HT2C agonist) (Sigma-Aldrich), at concentrations 1 μM and 10 μM overnight. Supernatant was collected and bead-based immunoassays (Biolegend) were performed to detect changes in cytokine secretion.
Across multiple human donors, secretion of the inflammatory cytokine, IL8, by macrophages was decreased after addition of each of the HTR2B, HTR2C, and HTR7 agonists, as show in Table 17 below.

SMILES | Fold change of IL-8 (Normalized to Macs + LPS with no compound treatment) (compound 1 μM overnight) | Fold change of IL-8 (Normalized to Macs + LPS with no compound treatment) (compound 10 μM overnight)
CC(N)Cc1c[nH]c2ccc(OCc3cccs3)cc12.Cl (stereo not drawn) [BW723086] | 0.693 | 0.527
CSc1ccccc1N1CCN(CCCCCC(=O)NC2CCCc3ccccc32)CC1 (stereo not drawn) [LP44] | 0.340 | 0.427
Clc1cncc(N2CCNCC2)n1 [MK212] | 0.502 | 0.484

— patent US11208475B1, “Methods and compositions for treating inflammatory or autoimmune diseases or conditions using serotonin receptor activators” (Flagship Pioneering Innovations V, Inc., priority 2018, dated 2021)
